In general, CC50 refers to the concentration that lowers cell viability or growth by half. By IC50 is commonly meant the concentration that gives 50% inhibition.

Several values for one entry are separate records, joined by “and”; a condition that tells them apart may be missing. Identical values can stand only once. Entries after “also recorded” stand apart in the source; their conditions may differ.

Series [1] has as its system sRANKL induced osteoclast differentiation. As to the kind of experiment: In vitro anti-osteoclastogenesis activity determination (TRAP staining). On the set-up: key to inhibition of osteoclastogenesis, dose-response (fig. S2a): % inhibition = 100 − (treated−unstimulated)/(untreated−unstimulated)×100. The format is cell-based, mouse. The settings on record: for inhibition of osteoclastogenesis, dose-response (fig. S2a): three replicate columns; for IC50 / OC IC50 (anti-osteoclastogenesis activity): BMMs, M-CSF + 100 ng/mL sRANKL, 5 days, TRAP staining; for IC50: read-out: OC IC50 (anti-osteoclastogenesis activity). How it is done: Mouse osteoclasts were cultured according to the previously reported protocols. BMMs were plated in 96-well plates at a density of 6 × 10^3 cells/well with complete medium containing 10 ng/mL M-CSF. The following day, cells were then stimulated with 100 ng/mL sRANKL in the presence or absence of compounds with different concentrations every 2 days until osteoclasts formed. In order to calculate IC50, we set 9 concentrations for each compound and untreated and non-sRANKL unstimulating group as controls, each with triplicated repeated wells. After 5 days, cells were fixed with 4% paraformaldehyde and then applied TRAP-staining to identify osteoclasts by using the TRAP-staining kit. Osteoclasts number (OC No.) in each well was counted and the percentage of inhibition ratio was calculated as follows:1 OCinhibitoryratio%=100−OCNo.treated−OCNo.unstimulating/OCNo.untreated−OCNo.unstimulating×100%
The dosages and their correspondent osteoclastogenesis inhibitory activity curve and IC50 value were conducted by using Nonlinear regression (curve fit) analytic procedure in GraphPad Prism 8. Photographs of individual wells were taken using Leica microscope.

The test system of the next series is RAW264.7 cells. Description: In vitro cytotoxicity assay (MTT). The settings on record: RAW264.7, MTT. The series is classed as cell-based, mouse. How it is done:
MTT assay was used to determine cell viability. RAW264.7 cells in the logarithmic growth phase were cultured in 96-well plates with 6 × 10^3 cells in each well and incubated for 24 h. The surviving cells were then determined by MTT method. […] Cell growth inhibition ratio was calculated as follows: Cellgrowthinhibitionratio%=ODvehicle−ODtreaed/ODvehicle×100%
Cell cytotoxicity CC50 value were conducted by using Nonlinear regression (curve fit) analytic procedure in GraphPad Prism 8.

Turning to `CCOC(=O)c1sc(NC(=O)C(=NNc2c(C)cccc2C(=O)O)C(C)=O)nc1C` [S3-11], the “inhibition of osteoclastogenesis, dose-response (fig. S2a)” value (“inhibition of osteoclastogenesis” for short) in series [1] (conc. 0.0023464 μM) is 6.678 and -7.003 and 1.303; in series [1] (conc. 0.00774313 μM), -5.049 and 1.792 and -0.6515; in series [1] (conc. 0.0255523 μM), -0.6515 and 3.257 and 0.3257; in series [1] (conc. 0.0843226 μM), 5.212 and -2.117 and 3.746; in series [1] (conc. 0.278265 μM), 16.4495 and 15.9609 and 19.3811; in series [1] (conc. 0.918274 μM), 28.1759 and 21.3355 and 30.1303. For the same molecule, the “inhibition of osteoclastogenesis” value in series [1] (conc. 3.0303 μM) is 50.1629 and 34.5277 and 49.6743; in series [1] (conc. 10 μM), 97.557 and 94.1368 and 98.0456; in series [1] (conc. 33 μM), 100. The CC50 in the series on RAW264.7 cells amounted to 75.2 µM.

Consider `CCOC(=O)c1sc(NC(=O)C(=NNc2ccc(F)cc2C(=O)O)C(C)=O)nc1C` [S3-14], for which, in series [1], the IC50 worked out at 0.27 µM. The “inhibition of osteoclastogenesis” value was 3.265 and -2.857 and -2.551 in series [1] (conc. 0.0023464 μM); 7.2449 and 0.2041 and -2.857 in series [1] (conc. 0.00774313 μM); 7.2449 and 2.041 and 14.2857 in series [1] (conc. 0.0255523 μM); 37.8571 and 28.9796 and 23.4694 in series [1] (conc. 0.0843226 μM); 54.3878 and 61.4286 and 45.8163 in series [1] (conc. 0.278265 μM); 73.9796 and 67.2449 and 59.2857 in series [1] (conc. 0.918274 μM). Further, the “inhibition of osteoclastogenesis” value is 88.9796 and 96.3265 and 87.7551 in series [1] (conc. 3.0303 μM); 98.4694 and 95.7143 and 97.551 in series [1] (conc. 10 μM); 100 in series [1] (conc. 33 μM). The same molecule returned a CC50 with RAW264.7 cells of 76.2 µM.

For the molecule `CC(=O)C(=NNc1ccccc1C(=O)O)C(=O)Nc1nc(C)cs1` [S3-08], in series [1], the IC50 is 2.33 µM and 2.34 µM. The “inhibition of osteoclastogenesis” value is 1.304 and -3.21 and -2.307 in series [1] (conc. 0.0023464 μM); 3.711 and 2.508 and 1.304 in series [1] (conc. 0.00774313 μM); 3.109 and 3.41 and 5.517 in series [1] (conc. 0.0255523 μM); 6.118 and 6.419 and 8.225 in series [1] (conc. 0.0843226 μM); 18.7563 and 19.0572 and 20.2608 in series [1] (conc. 0.278265 μM); 29.8897 and 31.0933 and 35.005 in series [1] (conc. 0.918274 μM). Also, the “inhibition of osteoclastogenesis” value in series [1] (conc. 3.0303 μM) is 50.9529 and 40.7222 and 44.6339; in series [1] (conc. 10 μM) it was 83.7512 and 85.2558 and 78.6359; in series [1] (conc. 33 μM), 100. The same molecule returned a CC50 in the series on RAW264.7 cells of more than 100 µM.

With `CCOC(=O)c1sc(NC(=O)C(=NNc2ccc(C)cc2C(=O)O)C(C)=O)nc1C` [S3-13], in series [1], the 50% inhibitory concentration (IC50) was 10.7 µM. Besides, the “inhibition of osteoclastogenesis” value was 1.735 and -0.7143 and 2.347 in series [1] (conc. 0.0023464 μM); 1.735 and -2.551 and 3.571 in series [1] (conc. 0.00774313 μM); 7.857 and -4.694 and -0.102 in series [1] (conc. 0.0255523 μM); 11.8367 and 3.878 and -9.592 in series [1] (conc. 0.0843226 μM); 11.2245 and 7.551 and -1.327 in series [1] (conc. 0.278265 μM); 7.2449 and 6.633 and 3.571 in series [1] (conc. 0.918274 μM). Besides, the “inhibition of osteoclastogenesis” value in series [1] (conc. 3.0303 μM) was 7.2449 and 2.959 and -1.327; in series [1] (conc. 10 μM) it was 47.6531 and 40.3061 and 42.7551; in series [1] (conc. 33 μM), 100. Further, the CC50 in the series with RAW264.7 cells is more than 100 µM.

For the molecule `CCOC(=O)c1sc(NC(=O)C(=NNc2ccccc2CO)C(C)=O)nc1C` [S3-07], in series [1], the “OC IC50 (anti-osteoclastogenesis activity)” value is “inactive; also recorded: lose osetoclastogenesis inhibitory activities” and the IC50 was 2.33 µM. Further, the CC50 in the series on RAW264.7 cells was 49.1 µM.

Regarding `CC(=O)C(=NNc1ccccc1C(=O)O)C(=O)Nc1ccc(C#N)cn1` [S3-15-1], the IC50 in series [1] is 1.05 µM. Also, the “inhibition of osteoclastogenesis” value in series [1] (conc. 0.0023464 μM) is 2.8169 and -0.3521 and -2.465; in series [1] (conc. 0.00774313 μM) it was 2.113 and 9.859 and 10.5634; in series [1] (conc. 0.0255523 μM), 19.3662 and 16.1972 and 17.6056; in series [1] (conc. 0.0843226 μM) it was 28.169 and 26.7606 and 24.2958; in series [1] (conc. 0.278265 μM), 28.169 (2×) and 24.2958; in series [1] (conc. 0.918274 μM), 45.0704 and 44.7183 (2×). For the same molecule, the “inhibition of osteoclastogenesis” value in series [1] (conc. 3.0303 μM) was 59.8591 and 57.7465 and 60.9155; in series [1] (conc. 10 μM), 77.4648 and 79.5775 and 76.0563; in series [1] (conc. 33 μM), 100. Moreover, the midpoint of cytotoxicity in the series with RAW264.7 cells, the CC50, lay at 81.2 µM.

Regarding `CC(=O)C(=NNc1ccccc1C(=O)[O-])C(=O)Nc1nc(C)cs1.[Na+]` [S3-12], the “inhibition of osteoclastogenesis” value in series [1] (conc. 0.0023464 μM) was 4.4898 and 6.02 and -2.2449; in series [1] (conc. 0.00774313 μM), 6.939 and -1.02 and -1.633; in series [1] (conc. 0.0255523 μM), 4.796 and 0.8163 and -3.469; in series [1] (conc. 0.0843226 μM) it was 37.8571 and 16.4286 and 7.857; in series [1] (conc. 0.278265 μM) it was 39.3878 and 32.9592 and 21.3265; in series [1] (conc. 0.918274 μM), 55.3061 and 47.3469 and 54.0816. Further, the “inhibition of osteoclastogenesis” value in series [1] (conc. 3.0303 μM) was 74.2857 and 67.551 and 64.4898; in series [1] (conc. 10 μM), 94.7959 and 77.0408 and 85; in series [1] (conc. 33 μM), 100. Half-maximal cytotoxicity in the series with RAW264.7 cells (CC50) was put at 65.8 µM.

For `CC(=O)C(=NNc1ccccc1C(=O)O)C(=O)N1CCOCC1` [S3-18], the “OC IC50 (anti-osteoclastogenesis activity)” value in series [1] is “Inactive”. Also, the CC50 in the series with RAW264.7 cells worked out at 52.6 µM.

On to `CC(=O)C(=NNc1ccc(O)cc1C(=O)O)C(=O)Nc1ccccn1` [S3-15-3], for which the IC50 in series [1] worked out at 3.59 µM. For the same molecule, the “inhibition of osteoclastogenesis” value in series [1] (conc. 0.0023464 μM) was 7.632 and 19.0789 and 12.7632; in series [1] (conc. 0.00774313 μM), 4.079 and 5.263 and 2.105; in series [1] (conc. 0.0255523 μM), 2.105 and -3.421 and -3.026; in series [1] (conc. 0.0843226 μM) it was 11.579 and 29.3421 and 8.026; in series [1] (conc. 0.278265 μM), 15.5263 and 26.9737 and 19.0789; in series [1] (conc. 0.918274 μM) it was 44.7368 and 36.4474 and 37.6316. The “inhibition of osteoclastogenesis” value in series [1] (conc. 3.0303 μM) is 52.6316 and 53.8158 and 45.1316; in series [1] (conc. 10 μM), 64.4737 and 56.1842 and 57.3684; in series [1] (conc. 33 μM), 73.9474 and 72.3684 and 70.7895. In the series on RAW264.7 cells, this molecule yielded a CC50 of 62.8 µM.

As for `CCOC(=O)c1sc(NC(=O)C(=NNc2ccccc2O)C(C)=O)nc1C` [S3-06], in series [1], the IC50 came to 1.4 µM. Also, the “inhibition of osteoclastogenesis” value in series [1] (conc. 0.0023464 μM) is -2.117 and 4.235 and 7.166; in series [1] (conc. 0.00774313 μM), 2.28 and -2.606 and 3.746; in series [1] (conc. 0.0255523 μM), 1.792 and 3.746 and -0.1629; in series [1] (conc. 0.0843226 μM) it was 4.723 and 7.166 and -1.14; in series [1] (conc. 0.278265 μM) it was 27.1987 and 24.2671 and 26.2215; in series [1] (conc. 0.918274 μM) it was 39.4137 and 37.4593 and 42.3453. Further, the “inhibition of osteoclastogenesis” value in series [1] (conc. 3.0303 μM) is 68.7296 and 60.9121 and 64.3322; in series [1] (conc. 10 μM) it was 81.9218 (2×) and 82.899; in series [1] (conc. 33 μM), 100. Also, in the series with RAW264.7 cells, the midpoint of cytotoxicity, the CC50, lay at 202 µM.

Take `CCOC(=O)c1sc(NC(=O)C(=NNc2c(C(=O)O)cccc2C(=O)O)C(C)=O)nc1C` [S3-19]: the IC50 in series [1] was determined as 9.49 µM. In addition, the “inhibition of osteoclastogenesis” value in series [1] (conc. 0.0023464 μM) was 10.2719 and 4.834 (2×); in series [1] (conc. 0.00774313 μM), 5.287 and 4.834 and 5.74; in series [1] (conc. 0.0255523 μM), 0.7553 and 1.208 and 3.021; in series [1] (conc. 0.0843226 μM), 5.74 and 4.381 and -1.0574; in series [1] (conc. 0.278265 μM) it was 18.8822 and 16.6163 and 15.2568; in series [1] (conc. 0.918274 μM), 19.7885 and 17.0695 and 17.5227. In addition, the “inhibition of osteoclastogenesis” value in series [1] (conc. 3.0303 μM) is 26.1329 and 38.3686 and 35.1964; in series [1] (conc. 10 μM), 44.713 (2×) and 40.6344; in series [1] (conc. 33 μM), 74.1692 and 70.997 and 80.0604. Further, half-maximal cytotoxicity in the series on RAW264.7 cells (CC50) was put at 77.9 µM.

(Values after PMC9468151, “Identification of a binding site on soluble RANKL that can be targeted to inhibit soluble RANK-RANKL interactions and treat osteoporosis” (Nature Communications, 2022).)
